The pIC50 is the negative decadic logarithm of the IC50, by convention in mol/L.

Each structure is given as a SMILES string. pIC50: −log10 of the molar value.

The target of experiment [1] is Beta-2 adrenergic receptor (Homo sapiens, UniProt P07550). Description: Adrenergic Receptor Binding Assay: The study of binding to human adrenergic beta1 and beta2 receptors was performed using commercial membranes prepared from Sf9 cells where they are overexpressed (Perkin Elmer). The membrane suspensions (16 μg/well for beta1 and 5 μg/well for beta2) in assay buffer (75 mM Tris/HCl with 12.5 mM MgCl2 and 2 mM EDTA pH=7.4) were incubated with 0.14 or 0.6 nM of 3H-CGP12177 (Amersham) for beta 1 and beta 2 receptors respectively in a final volume of 250 μl, in GFC Multiscreen 96 well plates (Millipore) previously treated with assay buffer containing 0.3% PEI (Sigma). Non specific binding was measured in the presence of 1 μM propanolol. Incubation was maintained for 60 minutes at room temperature and with gentle shaking. The binding reactions were terminated by filtration and washing with 2.5 volumes of Tris/HCl 50 mM pH=7.4. It counts as cell membranes.
Beta-2 adrenergic receptor, sequence (P07550 whole entry): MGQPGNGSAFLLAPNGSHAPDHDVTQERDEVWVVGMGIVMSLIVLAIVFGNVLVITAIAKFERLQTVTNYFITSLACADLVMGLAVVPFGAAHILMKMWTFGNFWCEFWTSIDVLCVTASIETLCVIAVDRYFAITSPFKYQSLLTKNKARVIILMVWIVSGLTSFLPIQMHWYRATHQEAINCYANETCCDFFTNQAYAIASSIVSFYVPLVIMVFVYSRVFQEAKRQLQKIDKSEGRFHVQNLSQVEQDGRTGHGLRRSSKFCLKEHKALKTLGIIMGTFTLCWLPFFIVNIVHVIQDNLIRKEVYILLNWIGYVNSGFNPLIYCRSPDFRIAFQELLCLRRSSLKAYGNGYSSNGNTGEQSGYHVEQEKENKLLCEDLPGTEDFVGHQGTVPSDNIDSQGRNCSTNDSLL

The target of experiment [2] is Muscarinic acetylcholine receptor M3 (Homo sapiens, UniProt P20309). Description: Muscarinic Receptor Binding Assay: The study of binding to human muscarinic M1, M2, M3, M4 and M5 receptors was performed using commercial membranes (Perkin Elmer) prepared from CHO-K1 cells. Radioligand binding experiments were conducted in 96 polypropylene well plates in a total volume of 200 μl. All reagents were dissolved in assay binding buffer (PBS with calcium and magnesium, SIGMA), except compounds that were dissolved in DMSO 100%. Non-specific binding (NSB) was measured in the presence of 1 μM atropine. [3H]-NMS was used as the radioligand at a concentration of 1 nM for M2, M3 and M5 and 0.3 nM for M1 and M4. [3H]-NMS and antagonists were incubated with membranes that express human muscarinic receptors M1, M2, M3, M4 and M5 at concentrations of 8.1, 10, 4.9, 4.5 and 4.9 μg/well, respectively. After an incubation period of two hours with gentle shaking, 150 μl of the reaction mix were transferred to 96 GF/C filter plates (Millipore), previously treated with wash buffer (Tris 50 mM; NaCl 100 mM; pH: 7.4), containing 0.05% PEI (Sigma) during one hour. Bound and free [3H]-NMS were separated by rapid vacuum filtration in a manifold from Millipore and washed four times with ice cold wash buffer. After drying 30 min, 30 μl of OPTIPHASE Supermix were added to each well and radioactivity quantified using a Microbeta microplate scintillation counter. Format: cell-based.
Muscarinic acetylcholine receptor M3, sequence (P20309 whole entry): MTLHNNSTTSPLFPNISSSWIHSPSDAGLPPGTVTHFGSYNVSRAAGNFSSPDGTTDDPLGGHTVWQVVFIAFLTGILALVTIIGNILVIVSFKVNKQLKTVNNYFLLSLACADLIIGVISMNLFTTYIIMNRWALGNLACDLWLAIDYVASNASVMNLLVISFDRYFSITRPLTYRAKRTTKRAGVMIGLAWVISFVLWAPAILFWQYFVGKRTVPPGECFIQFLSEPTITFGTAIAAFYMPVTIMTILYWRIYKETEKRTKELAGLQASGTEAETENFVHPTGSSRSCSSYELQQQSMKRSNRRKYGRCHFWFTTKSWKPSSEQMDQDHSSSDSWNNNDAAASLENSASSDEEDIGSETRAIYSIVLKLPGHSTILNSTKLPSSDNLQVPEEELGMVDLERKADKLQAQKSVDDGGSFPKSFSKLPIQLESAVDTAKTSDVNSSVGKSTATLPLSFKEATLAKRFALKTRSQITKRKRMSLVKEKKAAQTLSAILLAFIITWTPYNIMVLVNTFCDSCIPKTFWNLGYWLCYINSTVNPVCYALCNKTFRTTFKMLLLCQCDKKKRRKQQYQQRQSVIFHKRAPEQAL

For the molecule `CN(CCOc1ccc(CCNC[C@H](O)c2ccc(O)c3[nH]c(=O)ccc23)cc1)C1CCC(OC(=O)C(O)(c2cccs2)c2cccs2)CC1` (stereo partly specified), the pIC50 in experiment [1] was 7.44; in experiment [2], 8.89.
Taken in the same sequence, the figures for `CN(CCC(=O)Nc1ccc(CNC[C@H](O)c2ccc(O)c3[nH]c(=O)ccc23)cc1Cl)[C@H]1CC[C@H](OC(=O)C(O)(c2cccs2)c2cccs2)CC1` were 8.17 and 8.66.
Regarding `COc1cc(NC(=O)CCN(C)[C@H]2CC[C@H](OC(=O)C(O)(c3cccs3)c3cccs3)CC2)c(Cl)cc1CNC[C@H](O)c1ccc(O)c2[nH]c(=O)ccc12`, the pIC50 was 8.07 in experiment [1] and 8.96 in experiment [2].

The record behind these values is ChEMBL document CHEMBL3886646, “Cyclohexylamine derivatives having β2 adrenergic agonist and M3 muscarinic antagonist activities” (2016).
